Data reported in ChEMBL document CHEMBL5335791, “Antiparasitic activity of ivermectin: Four decades of research into a "wonder drug"” (Eur J Med Chem, 2023).

Key:
[1] = test system: Leishmania infantum; experiment: Antileishmanial activity against promastigote form of Leishmania infantum infected in BALB/c mouse assessed as reduction in parasite growth at 2.5 mg/kg, po administered once for every two days for 10 days; assay type: functional, organism-based
[2] = (§1) Cytotoxicity against BALB/c mouse macrophage assessed as cell viability measured after 48 hrs by MTT assay; assay type: toxicity, cell-based; conditions: BALB/c, mouse macrophages
[3] = Selectivity index, ratio of CC50 for cytotoxicity against BALB/c mouse macrophages to IC50 for antileishmanial activity against promastigote form of Leishmania infantum infected in BALB/c mouse; assay type: toxicity
[4] = test system: Trypanosoma cruzi; experiment: Antitrypanosomal activity against Trypanosoma cruzi Y strain intracellular epimastigotes assessed as viability of intracellular epimastigote measured after 5 days; assay type: functional, organism-based
[5] = test system: Macrophage; experiment: as §1; assay type: toxicity, cell-based; conditions: macrophage, 48 h
[6] = Acute toxicity in Beagle dog assessed as lethal dose; set-up: species or system Canis lupus familiaris; conditions: in vivo
[7] = Toxicity in mouse assessed as lethal dose; conditions: in vivo
[8] = test system: Trypanosoma cruzi; experiment: Antitrypanosomal activity against Trypanosoma cruzi Y strain trypomastigotes; assay type: functional, organism-based
[9] = test system: Trypanosoma evansi; experiment: Antitrypanosomal activity against Trypanosoma evansi; assay type: functional, organism-based
[10] = test system: Trypanosoma cruzi; experiment: Antitrypanosomal activity against Trypanosoma cruzi Y strain amastigotes; assay type: functional, organism-based

What does the source list for `C[C@@H]1[C@H](O)[C@@H](C)/C=C/C=C/C=C/C=C/C=C/C=C/C=C/[C@H](O[C@@H]2O[C@H](C)[C@@H](O)[C@H](N)[C@@H]2O)C[C@@H]2O[C@](O)(C[C@@H](O)C[C@@H](O)[C@H](O)CC[C@@H](O)C[C@@H](O)CC(=O)O[C@H]1C)C[C@H](O)[C@H]2C(=O)O` [AMPHOTERICIN B]?
IC50 ([1]; Leishmania infantum): 0.12 µM; CC50 at 48 h [2]: 1.06 µM; selectivity ratio ([3]; BALB/c, mouse macrophages, read-out: Ratio CC50/IC50): ~9

Which results are given for IVERMECTIN?
IC50 [1]: 3.64 µM; EC50 [4]: 5.3 µM; CC50 [5]: 428 µM; Ratio CC50/IC50 [3]: 117; LD50 [6]: 80 mg/kg; LD50 [7]: 0.2 mg/kg; EC50 [8]: 12.5 µM; IC50 [9]: 13.8 µM; EC50 [10]: 0.3 µM
